Results from article PMC12040169 (PLOS Biology, 2025).

Assays:
[1] = tested on: T1, CTL2-GFP (C. trachomatis L2/434/Bu, GFP-expressing); assay: microbe, parasite or virus in culture; design: Intracellular C. trachomatis growth in HeLa cells, bulk GFP fluorescence relative to DMSO; conditions: Chlamydia trachomatis, HeLa, 28.5 h; bulk GFP, mean of 2; read-out: % of control remaining
T1 construct: L2/434/Bu, GFP-expressing
Experimental: MICs were calculated as described above.

in vitro [2] = assay: in vitro; design: Viability of infected HeLa host cells, resazurin conversion, bulk resorufin fluorescence relative to DMSO; conditions: human, hela cells; bulk resorufin, mean of 2
[3] = tested on: T2, C. trachomatis L2/434/Bu expressing GFP (CTL2-GFP); assay: microbe, parasite or virus in culture; design: C. trachomatis total inclusion area by high-content imaging, normalised to DMSO; conditions: Chlamydia trachomatis, HeLa, 28.5 h; total inclusion area; read-out: % of control remaining
T2 construct: L2/434/Bu GFP intracellular growth in HeLa cells
Method in brief: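 Read-out combines bulk fluorescence and imaging: GFP tracks chlamydial growth, resorufin tracks host cell viability. Plates were then fixed and Hoechst-stained so inclusions and nuclei could be imaged and counted per well.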

in vitro [4] = conditions: human, hela cells, % viability

CCOc1cc(/C=N/Nc2nnc(C)n2N)ccc1O [CBK027460]
activity at 1 µM [1]: 109%
activity at 5 µM [1]: 57.8%
activity at 10 µM [1]: 26%
viability at 28.5 h, 1 µM (in vitro [2]): 93.3%
viability at 28.5 h, 5 µM (in vitro [2]): 88.7%
viability at 28.5 h, 10 µM (in vitro [2]): 87.4%
activity at 1 µM [3]: 115%
activity at 5 µM [3]: 81%
activity at 10 µM [3]: 31.7%
viability at 28.5 h, 10 µM (in vitro [4]): 88.9%

NC(=O)c1[nH]nc(C2OC(CO)C(O)C2O)c1O (centres unmarked) [CBK201236]
activity at 1 µM [1]: 15.5%
activity at 5 µM [1]: 10.1%
activity at 10 µM [1]: 9.69%
viability at 28.5 h, 1 µM (in vitro [2]): 92.8%
viability at 28.5 h, 5 µM (in vitro [2]): 92.1%
viability at 28.5 h, 10 µM (in vitro [2]): 93.8%
activity at 1 µM [3]: 23.4%
activity at 5 µM [3]: 16%
activity at 10 µM [3]: 13.6%
viability at 28.5 h, 10 µM (in vitro [4]): 95.1%

Cc1cc2cc(C(=O)N3CCC(c4c(C(=O)NC(C)C)sc5ccccc45)C3)ccc2o1 (centres unmarked) [CBK285873]
activity at 1 µM [1]: 148%
activity at 5 µM [1]: 48.7%
activity at 10 µM [1]: 31.6%
viability at 28.5 h, 1 µM (in vitro [2]): 90%
viability at 28.5 h, 5 µM (in vitro [2]): 97.6%
viability at 28.5 h, 10 µM (in vitro [2]): 96.2%
activity at 1 µM [3]: 150%
activity at 5 µM [3]: 85.1%
activity at 10 µM [3]: 51.5%
viability at 28.5 h, 10 µM (in vitro [4]): 87.1%

Nc1cccc2c(OCCO)cccc12 [CBK001976C]
activity at 1 µM [1]: 92.4%
activity at 5 µM [1]: 76.5%
activity at 10 µM [1]: 45.6%
viability at 28.5 h, 1 µM (in vitro [2]): 92.9%
viability at 28.5 h, 5 µM (in vitro [2]): 89%
viability at 28.5 h, 10 µM (in vitro [2]): 85.7%
activity at 1 µM [3]: 82.7%
activity at 5 µM [3]: 72.9%
activity at 10 µM [3]: 30.7%
viability at 28.5 h, 10 µM (in vitro [4]): 91.8%

CCCc1cc(C(=O)N2CCN(c3nccc(OC)n3)CC2)[nH]n1 [CBK304898]
activity at 1 µM [1]: 148%
activity at 5 µM [1]: 151%
activity at 10 µM [1]: 156%
viability at 28.5 h, 1 µM (in vitro [2]): 89.4%
viability at 28.5 h, 5 µM (in vitro [2]): 93.7%
viability at 28.5 h, 10 µM (in vitro [2]): 89.2%
activity at 1 µM [3]: 127%
activity at 5 µM [3]: 120%
activity at 10 µM [3]: 43.6%
viability at 28.5 h, 10 µM (in vitro [4]): 87%

Cc1cc(NS(=O)(=O)c2ccc(NC(=O)CCCOc3ccc(Cl)cc3Cl)cc2)no1 [CBK297145]
activity at 1 µM [1]: 128%
activity at 5 µM [1]: 62.6%
activity at 10 µM [1]: 39.3%
viability at 28.5 h, 1 µM (in vitro [2]): 85.1%
viability at 28.5 h, 5 µM (in vitro [2]): 93.5%
viability at 28.5 h, 10 µM (in vitro [2]): 89.4%
activity at 1 µM [3]: 125%
activity at 5 µM [3]: 84.3%
activity at 10 µM [3]: 56.5%
viability at 28.5 h, 10 µM (in vitro [4]): 103%

O=C(Nc1nccs1)c1cc(C2CCN(C(=O)CC3CCCCC3)C2)nc2ccccc12 (centres unmarked) [CBK285586]
activity at 1 µM [1]: 134%
activity at 5 µM [1]: 122%
activity at 10 µM [1]: 35.7%
viability at 28.5 h, 1 µM (in vitro [2]): 92.6%
viability at 28.5 h, 5 µM (in vitro [2]): 93%
viability at 28.5 h, 10 µM (in vitro [2]): 93.3%
activity at 1 µM [3]: 115%
activity at 5 µM [3]: 119%
activity at 10 µM [3]: 48.9%
viability at 28.5 h, 10 µM (in vitro [4]): 116%

FC(F)(F)CCN1CCC2(CC1)NCCc1c2[nH]c2ccc(Cl)cc12 [CBK039331]
activity at 1 µM [1]: 123%
activity at 5 µM [1]: 46.8%
activity at 10 µM [1]: 30.2%
viability at 28.5 h, 1 µM (in vitro [2]): 98.2%
viability at 28.5 h, 5 µM (in vitro [2]): 105%
viability at 28.5 h, 10 µM (in vitro [2]): 108%
activity at 1 µM [3]: 56.9%
activity at 5 µM [3]: 20.2%
activity at 10 µM [3]: 7.6%
viability at 28.5 h, 10 µM (in vitro [4]): 91%

O=C(O)c1cn(C2CC2)c2cc(N3CCN(C(=O)Cc4ccsc4)CC3)c(F)cc2c1=O [CBK297142]
activity at 1 µM [1]: 137%
activity at 5 µM [1]: 28.4%
activity at 10 µM [1]: 17.7%
viability at 28.5 h, 1 µM (in vitro [2]): 90.6%
viability at 28.5 h, 5 µM (in vitro [2]): 93%
viability at 28.5 h, 10 µM (in vitro [2]): 90.7%
activity at 1 µM [3]: 114%
activity at 5 µM [3]: 17.9%
activity at 10 µM [3]: 12.9%
viability at 28.5 h, 10 µM (in vitro [4]): 88.9%

Cc1cc(NS(=O)(=O)c2ccc(Nc3nc(-c4ccccn4)cs3)cc2)no1 [CBK263302B]
activity at 1 µM [1]: 105%
activity at 5 µM [1]: 88.6%
activity at 10 µM [1]: 49.5%
viability at 28.5 h, 1 µM (in vitro [2]): 90.8%
viability at 28.5 h, 5 µM (in vitro [2]): 93.6%
viability at 28.5 h, 10 µM (in vitro [2]): 99.8%
activity at 1 µM [3]: 76.5%
activity at 5 µM [3]: 93.3%
activity at 10 µM [3]: 56.4%
viability at 28.5 h, 10 µM (in vitro [4]): 93.1%

COc1cc(OC)c(CCNC2CCCc3c2cnn3C)c(OC)c1 (centres unmarked) [CBK304482]
activity at 1 µM [1]: 147%
activity at 5 µM [1]: 156%
activity at 10 µM [1]: 135%
viability at 28.5 h, 1 µM (in vitro [2]): 97.4%
viability at 28.5 h, 5 µM (in vitro [2]): 91.3%
viability at 28.5 h, 10 µM (in vitro [2]): 93.8%
activity at 1 µM [3]: 102%
activity at 5 µM [3]: 131%
activity at 10 µM [3]: 56.7%
viability at 28.5 h, 10 µM (in vitro [4]): 111%

Cn1c(=O)c2c(ncn2Cc2ccccc2)n(C)c1=O [CBK133402]
activity at 1 µM [1]: 119%
activity at 5 µM [1]: 115%
activity at 10 µM [1]: 111%
viability at 28.5 h, 1 µM (in vitro [2]): 111%
viability at 28.5 h, 5 µM (in vitro [2]): 110%
viability at 28.5 h, 10 µM (in vitro [2]): 109%
activity at 1 µM [3]: 100%
activity at 5 µM [3]: 51.9%
activity at 10 µM [3]: 66.7%

Cn1cc(C(c2ccc(OCC(=O)O)cc2)c2cn(C)c3ccccc23)c2ccccc21 [CBK266403]
activity at 1 µM [1]: 91%
activity at 5 µM [1]: 23.4%
activity at 10 µM [1]: 9.15%
viability at 28.5 h, 1 µM (in vitro [2]): 113%
viability at 28.5 h, 5 µM (in vitro [2]): 111%
viability at 28.5 h, 10 µM (in vitro [2]): 115%
activity at 1 µM [3]: 87.5%
activity at 5 µM [3]: 36%
activity at 10 µM [3]: 2.98%

CN(C)CCCNC(=O)Nc1cccc(-c2nc(-c3ccc(C#N)cc3)cnc2N)c1 [CBK116287]
activity at 1 µM [1]: 102%
activity at 5 µM [1]: 71.8%
activity at 10 µM [1]: 14.2%
viability at 28.5 h, 1 µM (in vitro [2]): 104%
viability at 28.5 h, 5 µM (in vitro [2]): 89.1%
viability at 28.5 h, 10 µM (in vitro [2]): 97.5%
activity at 1 µM [3]: 116%
activity at 5 µM [3]: 66.5%
activity at 10 µM [3]: 4.68%

O=C(NCCCn1ccnc1)c1cc(-c2ccc(Br)cc2)nc2ccccc12 [CBK262645]
activity at 1 µM [1]: 138%
activity at 5 µM [1]: 87.8%
activity at 10 µM [1]: 31.9%
viability at 28.5 h, 1 µM (in vitro [2]): 103%
viability at 28.5 h, 5 µM (in vitro [2]): 107%
viability at 28.5 h, 10 µM (in vitro [2]): 94.9%
activity at 1 µM [3]: 126%
activity at 5 µM [3]: 95.8%
activity at 10 µM [3]: 45.4%

O=[N+]([O-])c1cc([N+](=O)[O-])c2cccnc2c1NNc1nncc2ccccc12 [CBK110409]
activity at 1 µM [1]: 107%
activity at 5 µM [1]: 69%
activity at 10 µM [1]: 22.1%
viability at 28.5 h, 1 µM (in vitro [2]): 93%
viability at 28.5 h, 5 µM (in vitro [2]): 89.1%
viability at 28.5 h, 10 µM (in vitro [2]): 86.6%
activity at 1 µM [3]: 108%
activity at 5 µM [3]: 63.9%
activity at 10 µM [3]: 31%

Cc1cc(OCC(=O)Nc2ccc(S(=O)(=O)Nc3onc(C)c3C)cc2)cc(C)c1Cl [CBK263491]
activity at 1 µM [1]: 59.3%
activity at 5 µM [1]: 15.2%
activity at 10 µM [1]: 5.2%
viability at 28.5 h, 1 µM (in vitro [2]): 103%
viability at 28.5 h, 5 µM (in vitro [2]): 100%
viability at 28.5 h, 10 µM (in vitro [2]): 117%
activity at 1 µM [3]: 55.4%
activity at 5 µM [3]: 25.5%
activity at 10 µM [3]: 11.8%

CN1CCCN(c2cc(C(F)(F)F)c3scc(C(=O)NCc4cccc(F)c4F)c3n2)CC1 [CBK036386T]
activity at 1 µM [1]: 124%
activity at 5 µM [1]: 97.2%
activity at 10 µM [1]: 57.7%
viability at 28.5 h, 1 µM (in vitro [2]): 99%
viability at 28.5 h, 5 µM (in vitro [2]): 101%
viability at 28.5 h, 10 µM (in vitro [2]): 101%
activity at 1 µM [3]: 69.4%
activity at 5 µM [3]: 59.6%
activity at 10 µM [3]: 46.9%
